Results published in US10329294B2, “Pyrazolopyrimidine inhibitors of IRAK4 activity” (MERCK SHARP & DOHME CORP., priority 2015, dated 2019).
pIC50: −log10 of the molar value. Counter-ions that a name gives are not always drawn.

Each compound was assayed against IRAK4 (Homo sapiens (Human), UniProt Q9NWZ3) (assay: IRAK4 Kinase Assay). Settings: IMAP fluorescence polarization, 0.5 nM GST tagged IRAK4, 100 μM ATP, 30 minutes at 25° C.; read-out: IRAK4 IC50.
Sequence of IRAK4 (Q9NWZ3 whole entry): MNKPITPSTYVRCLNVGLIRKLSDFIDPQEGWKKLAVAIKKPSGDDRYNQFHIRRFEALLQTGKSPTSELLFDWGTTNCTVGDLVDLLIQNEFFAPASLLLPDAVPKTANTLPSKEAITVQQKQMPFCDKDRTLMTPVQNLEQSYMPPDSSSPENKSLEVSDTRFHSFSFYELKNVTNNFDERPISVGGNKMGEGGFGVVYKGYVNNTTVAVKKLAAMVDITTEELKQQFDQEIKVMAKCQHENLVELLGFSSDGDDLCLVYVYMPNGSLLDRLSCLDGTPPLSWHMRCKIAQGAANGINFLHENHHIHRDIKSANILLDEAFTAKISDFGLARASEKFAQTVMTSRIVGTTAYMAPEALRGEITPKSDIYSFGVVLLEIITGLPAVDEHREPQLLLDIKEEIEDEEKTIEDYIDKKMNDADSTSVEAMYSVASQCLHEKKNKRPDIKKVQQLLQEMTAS
Assay type: biochemical
In the case of `CC1CN(c2ccn3ncc(C(=O)Nc4cn(C)nc4C(F)(F)F)c3n2)C(C)CN1` (centres unmarked) [Example 79, 5-(2,5-dimethylpiperazin-1-yl)-N-[1-methyl-3-(trifluoromethyl)-1H-pyrazol-4-yl]pyrazolo[1,5-a]pyrimidine-3-carboxamide trifluoroacetate], the pIC50 was 7.21.
`Cn1cc(NC(=O)c2cnn3ccc(NC4CCCNCC4)nc23)c(C(F)(F)F)n1` (centres unmarked) [Example 17, 5-(azepan-4-ylamino)-N-[1-methyl-3-(trifluoromethyl)-1H-pyrazol-4-yl]pyrazolo[1,5-a]pyrimidine-3-carboxamide hydrochloride] gave a pIC50 of 7.85.
Work on `Cn1cc(NC(=O)c2cnn3ccc(N4CC5CNC(COC5)C4)nc23)c(C(F)(F)F)n1` (centres unmarked) [Example 80, N-[1-methyl-3-(trifluoromethyl)-1H-pyrazol-4-yl]-5-(3-oxa-7,9-diazabicyclo[3.3.2]dec-7-yl)pyrazolo[1,5-a]pyrimidine-3-carboxamide trifluoroacetate] yielded a pIC50 of 7.54.
Compound `Cn1cc(NC(=O)c2cnn3ccc(N4CC[C@H](F)[C@H](N)C4)nc23)c(C(F)F)n1` (single isomer, unassigned) [Example 179, 5-[(3S,4R)- or (3R,4S)-3-amino-4-fluoropiperidin-1-yl]-N-[3-(difluoromethyl)-1-methyl-1H-pyrazol-4-yl]pyrazolo[1,5-a]pyrimidine-3-carboxamide trifluoroacetate] has a pIC50 of 9.30.
`Cn1cc(NC(=O)c2cnn3ccc(N[C@H]4CCCCC[C@H]4N)nc23)c(C(F)(F)F)n1` (single isomer, unassigned) [Example 55, 5-{[(1R,2S)- or (1S,2R)-2-aminocycloheptyl]amino}-N-[1-methyl-3-(trifluoromethyl)-1H-pyrazol-4-yl]pyrazolo[1,5-a]pyrimidine-3-carboxamide] was tested, and the pIC50 was 8.10.
`C[C@@H]1CN(c2ccn3ncc(C(=O)Nc4cn(C)nc4C(F)(F)F)c3n2)[C@H](C)CN1` (relative stereo) [Example 75, 5-[cis-2,5-dimethylpiperazin-1-yl]-N-[1-methyl-3-(trifluoromethyl)-1H-pyrazol-4-yl]pyrazolo[1,5-a]pyrimidine-3-carboxamide trifluoroacetate] was tested, and the pIC50 was 7.26.
For `Cn1cc(NC(=O)c2cnn3ccc(N[C@H]4C(O)CCC[C@H]4N)nc23)c(C(F)(F)F)n1` (single isomer, unassigned) [Example 202, 5-{[(1R,2R)- or (1S,2S)-2-amino-6-hydroxycyclohexyl]amino}-N-[1-methyl-3-(trifluoromethyl)-1H-pyrazol-4-yl]pyrazolo[1,5-a]pyrimidine-3-carboxamide], the pIC50 was 8.40.
In the case of `O=C(Nc1cscc1Cl)c1cnn2ccc(N3C[C@@H]4CC[C@H]3CN4)nc12` (single isomer, unassigned) [Example 169, N-(4-chlorothiophen-3-yl)-5-[(1S,4S)- or (1R,4R)-2,5-diazabicyclo[2.2.2]oct-2-yl]pyrazolo[1,5-a]pyrimidine-3-carboxamide trifluoroacetate], the pIC50 was 6.82.
In the case of `Cn1cc(NC(=O)c2cnn3ccc(N4CC5CCC4CN5)nc23)c(C(F)(F)F)n1` (centres unmarked) [Example 11, 5-(2,5-diazabicyclo[2.2.2]oct-2-yl)-N-[1-methyl-3-(trifluoromethyl)-1H-pyrazol-4-yl]pyrazolo[1,5-a]pyrimidine-3-carboxamide hydrochloride], the pIC50 was 7.55.
`O=C(Nc1cn(CC(F)(F)F)nc1C(F)(F)F)c1cnn2ccc(N[C@@H]3CCCC[C@@H]3O)nc12` [Example 57, 5-{[(1R,2S)-2-hydroxycyclohexyl]amino}-N-[1-(2,2,2-trifluoroethyl)-3-(trifluoromethyl)-1H-pyrazol-4-yl]pyrazolo[1,5-a]pyrimidine-3-carboxamide trifluoroacetate] gave a pIC50 of 6.49.
With `Cn1cc(NC(=O)c2cnn3ccc(N[C@@H]4CCCC(F)(F)[C@@H]4N)nc23)c(Br)n1` [Example 139, 5-{[(1R,2R)-2-amino-3,3-difluorocyclohexyl]amino}-N-(3-bromo-1-methyl-1H-pyrazol-4-yl)pyrazolo[1,5-a]pyrimidine-3-carboxamide trifluoroacetate] the pIC50 was 6.90.
